Experimental findings from ChEMBL document CHEMBL1135203, “Benzodiazepine inhibitors of the MMPs and TACE” (Bioorg Med Chem Lett, 2002) are described below.

Structures are written as SMILES. Active and inactive are the calls of the source. No cut-off for these calls is given here.

The target of experiment [1] is Matrix metalloproteinase-9 (Homo sapiens, UniProt P14780). The experiment can be described thus: Concentration required in vitro to inhibit Matrix metalloprotease-9.
A further experiment addresses T1, Interstitial collagenase (Homo sapiens, UniProt P03956).
T1 sequence (P03956 whole entry): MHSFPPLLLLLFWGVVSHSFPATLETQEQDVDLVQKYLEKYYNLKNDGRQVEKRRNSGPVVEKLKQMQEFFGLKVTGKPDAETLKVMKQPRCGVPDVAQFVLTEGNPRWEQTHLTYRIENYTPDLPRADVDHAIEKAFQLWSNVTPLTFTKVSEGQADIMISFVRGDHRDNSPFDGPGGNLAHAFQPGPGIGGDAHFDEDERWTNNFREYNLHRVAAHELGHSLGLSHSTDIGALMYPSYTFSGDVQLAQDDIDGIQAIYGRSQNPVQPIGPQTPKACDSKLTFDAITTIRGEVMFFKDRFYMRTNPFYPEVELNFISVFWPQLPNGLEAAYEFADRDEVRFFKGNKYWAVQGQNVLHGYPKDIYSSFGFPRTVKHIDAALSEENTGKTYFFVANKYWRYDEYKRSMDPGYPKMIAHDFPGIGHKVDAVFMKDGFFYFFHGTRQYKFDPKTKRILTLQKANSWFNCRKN
The experiment can be described thus: Concentration required in vitro to inhibit Matrix metalloprotease-1.

Experiment [2] addresses Disintegrin and metalloproteinase domain-containing protein 17 (Homo sapiens, UniProt P78536). The experiment can be described thus: Concentration required in vitro to inhibit TNF-alpha converting enzyme (TACE).
In another experiment the target is Collagenase 3 (Homo sapiens, UniProt P45452). Description: Concentration required in vitro to inhibit Matrix metalloprotease-13.
In experiment [3] the test system is Rattus norvegicus. Description: Dialysis activity is detected at a dose of 50 mpk after 2 hr of ip administration. Set-up: unit not given here. Format: functional.
The test system of experiment [4] is Rattus norvegicus. Description: Dialysis activity is detected at a dose of 50 mpk after 1 hr of po administration. Format: functional. Set-up: unit not given here.
The species entered for experiment [5] is Bos taurus. Description: Compound was tested for inhibition of cartilage degradation using bovine cartilage explant model. Format: functional, Cartilage tissue.
For experiment [6], the species on record is Bos taurus. The experiment can be described thus: Inhibition of cartilage degradation by the compound was detected using bovine cartilage explant model at 1 uM. The experiment is classed as functional, Cartilage tissue.
Experiment [7] is filed under the species Rattus norvegicus. Description: Dialysis activity is detected at a dose of 50 mpk. Format: functional.
In a further experiment the test system is THP-1. The experiment can be described thus: Compound was tested for its ability to inhibit TNF-alpha in a cellular assay using THP-1 cells at 3 uM. The experiment is classed as functional. The note with it: Homo sapiens.
For experiment [8], the species on record is Rattus norvegicus. The experiment can be described thus: Dialysis activity is detected at a dose of 50 mpk; IA denotes inactive. The experiment is classed as functional, organism-based.
The test system of experiment [9] is Rattus norvegicus. Description: Dialysis activity is detected at a dose of 50 mpk after 1 hr of ip administration. Format: functional.

Chain of Disintegrin and metalloproteinase domain-containing protein 17 (P78536 whole entry, the tested form may be a part): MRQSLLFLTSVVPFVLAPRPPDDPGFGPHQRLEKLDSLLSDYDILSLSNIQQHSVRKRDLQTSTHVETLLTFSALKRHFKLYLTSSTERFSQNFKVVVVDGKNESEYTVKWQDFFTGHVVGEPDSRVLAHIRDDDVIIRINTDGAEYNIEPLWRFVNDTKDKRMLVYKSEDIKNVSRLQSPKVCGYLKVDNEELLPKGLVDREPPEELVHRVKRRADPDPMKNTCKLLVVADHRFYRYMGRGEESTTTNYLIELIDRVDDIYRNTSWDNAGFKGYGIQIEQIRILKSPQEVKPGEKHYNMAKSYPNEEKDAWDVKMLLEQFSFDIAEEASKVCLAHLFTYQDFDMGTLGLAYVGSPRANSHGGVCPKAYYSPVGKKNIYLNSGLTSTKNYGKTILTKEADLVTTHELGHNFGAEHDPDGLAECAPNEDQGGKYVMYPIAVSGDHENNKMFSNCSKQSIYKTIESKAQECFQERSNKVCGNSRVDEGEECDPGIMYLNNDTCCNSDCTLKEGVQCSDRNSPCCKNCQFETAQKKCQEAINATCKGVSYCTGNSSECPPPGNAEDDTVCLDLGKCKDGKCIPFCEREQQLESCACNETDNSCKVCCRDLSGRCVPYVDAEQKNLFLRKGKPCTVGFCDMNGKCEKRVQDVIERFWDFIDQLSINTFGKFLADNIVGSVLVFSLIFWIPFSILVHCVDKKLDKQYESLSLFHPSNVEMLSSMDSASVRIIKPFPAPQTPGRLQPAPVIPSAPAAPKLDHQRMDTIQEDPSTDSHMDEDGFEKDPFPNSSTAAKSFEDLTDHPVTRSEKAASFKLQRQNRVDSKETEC
Chain of Matrix metalloproteinase-9 (P14780 whole entry): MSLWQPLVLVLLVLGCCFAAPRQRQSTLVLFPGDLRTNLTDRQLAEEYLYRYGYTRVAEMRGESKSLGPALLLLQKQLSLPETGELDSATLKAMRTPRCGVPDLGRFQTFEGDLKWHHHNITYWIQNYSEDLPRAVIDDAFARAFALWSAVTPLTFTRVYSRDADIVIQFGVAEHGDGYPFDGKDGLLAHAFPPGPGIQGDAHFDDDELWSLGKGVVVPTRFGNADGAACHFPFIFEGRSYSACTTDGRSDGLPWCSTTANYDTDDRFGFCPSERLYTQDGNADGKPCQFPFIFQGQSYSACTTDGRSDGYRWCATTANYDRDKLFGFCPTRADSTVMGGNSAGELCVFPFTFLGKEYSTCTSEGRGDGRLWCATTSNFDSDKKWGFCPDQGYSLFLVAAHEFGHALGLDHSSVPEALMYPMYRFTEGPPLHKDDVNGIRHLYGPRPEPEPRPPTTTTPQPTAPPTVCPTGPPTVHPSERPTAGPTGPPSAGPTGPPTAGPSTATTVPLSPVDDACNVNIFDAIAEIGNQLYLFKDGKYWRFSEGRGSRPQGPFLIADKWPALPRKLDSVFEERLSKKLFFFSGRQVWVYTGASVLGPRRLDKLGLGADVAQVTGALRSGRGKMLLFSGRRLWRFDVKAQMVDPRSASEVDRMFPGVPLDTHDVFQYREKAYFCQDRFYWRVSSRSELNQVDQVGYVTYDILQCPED

A word on the IC50: it is the concentration that inhibits the measured activity by half. In the case of `O=C(NO)C1CN(C(=O)c2cccs2)c2ccccc2CN1S(=O)(=O)c1ccc(Oc2ccc(Cl)cc2)cc1` (stereo unspecified), the IC50 in experiment [1] is 0.002 µM; on Interstitial collagenase, 0.035 µM; in [2], 0.254 µM; against Collagenase 3, 0.004 µM.
For the molecule `COc1ccc(S(=O)(=O)N2Cc3ccccc3N(C(=O)c3cc(F)ccc3C)CC2C(=O)NO)cc1` (stereo unspecified), the IC50 worked out at 0.004 µM in experiment [1] and 0.002 µM against Collagenase 3.
`COc1ccc(S(=O)(=O)N2Cc3ccccc3N(C(C)=O)CC2C(=O)NO)cc1` (stereo unspecified) had an IC50 against Interstitial collagenase of 0.018 µM. Further, the Activity was found to be 1.7 in the experiment on Rattus norvegicus [3] and 0.9 with Rattus norvegicus [4].
With `CCOc1ccc(C(=O)N2CC(C(=O)NO)N(S(=O)(=O)c3ccc(OC)cc3)Cc3ccccc32)cc1` (stereo unspecified), the IC50 in experiment [1] is 0.002 µM; on Interstitial collagenase, 0.024 µM; on Collagenase 3, 0.002 µM.
Broadly, the Inhibition is the relative decrease from the control value, in per cent. Molecule `COc1ccc(S(=O)(=O)N(Cc2cccnc2)[C@@H](C(=O)NO)C(C)C)cc1.Cl` [CGS-27023A] displayed an Inhibition in the experiment listed under Bos taurus [5] of 63%. For the same molecule, the Activity in the experiment listed under Bos taurus [6] and in the experiment listed under Rattus norvegicus [7] was 1 each time.
Usually inhibition stands for the drop in the measured response relative to a control, in per cent. Turning to `CC#CCOc1ccc(S(=O)(=O)N2Cc3ccccc3N(C(=O)C3CC3)CC2C(=O)NO)cc1` (stereo unspecified), the IC50 in experiment [1] came out at 0.033 µM; at Interstitial collagenase, 0.841 µM; in experiment [2], 0.01 µM; on Collagenase 3, 0.029 µM. This molecule registered an inhibition at 3 µM in the experiment on THP-1 of 59%.
In the experiment with Rattus norvegicus [3], `COc1ccc(S(=O)(=O)N2Cc3ccccc3N(C(=O)CCc3ccccc3)CC2C(=O)NO)cc1` (stereo unspecified) registered an Activity of 0.22.
In the case of `COCC(=O)N1CC(C(=O)NO)N(S(=O)(=O)c2ccc(OC)cc2)Cc2ccccc21` (stereo unspecified), the IC50 (in experiment [1]; at Collagenase 3) was 0.002 µM each time. Also, the Activity in the experiment filed under Bos taurus [6] is given as 2.5; in the experiment with Rattus norvegicus [4] it was 1.
For `COc1ccc(S(=O)(=O)N2Cc3ccccc3N(C(=O)c3cccs3)CC2C(=O)NO)cc1` (stereo unspecified), the half-inhibitory concentration (IC50) was 0.02 µM against Interstitial collagenase and 0.001 µM against Collagenase 3. For the same molecule, the Activity was found to be 1.2 in the experiment listed under Bos taurus [6] and 1.1 in the experiment on Rattus norvegicus [3].
Consider `CC#CCOc1ccc(S(=O)(=O)N2Cc3ccccc3N(C(=O)c3ccccc3)CC2C(=O)NO)cc1` (stereo unspecified), for which the IC50 at Collagenase 3 came out at 0.0095 µM. Also, the inhibition at 3 µM in the experiment on THP-1 stood at 25%.
`O=C(NO)C1CN(C(=O)c2ccccc2)c2ccccc2CN1S(=O)(=O)c1ccc(Oc2ccc(Cl)cc2)cc1` (stereo unspecified): the IC50 worked out at 0.059 µM at Interstitial collagenase and 0.528 µM in [2].
On to `COc1ccc(S(=O)(=O)N2Cc3ccccc3N(C(=O)c3ccccc3)CC2C(=O)NO)cc1` (stereo unspecified), for which, in [1], the IC50 was 0.0006 µM. This molecule also gave an Inhibition in the experiment filed under Bos taurus [5] of 46.3%. In addition, the figures for the Activity in the experiment filed under Bos taurus [6] and in the experiment with Rattus norvegicus [3] were 0.73 and 1.2, respectively.
Consider `COCC(=O)N1CC(C(=O)NO)N(S(=O)(=O)c2ccc(Oc3ccc(Cl)cc3)cc2)Cc2ccccc21` (stereo unspecified), for which the figures for the 50% inhibitory concentration (IC50) (against Interstitial collagenase; in experiment [2]) were 0.061 µM and 0.157 µM, respectively. The IA entry in the experiment filed under Rattus norvegicus [8] is “inactive”.
Turning to `CC#CCOc1ccc(S(=O)(=O)N2Cc3ccccc3N(C(C)=O)CC2C(=O)NO)cc1` (stereo unspecified), in the experiment with THP-1, the inhibition at 3 µM was determined as 60%.
Take `COCC(=O)N1CC(C(=O)NO)N(S(=O)(=O)c2ccc(Oc3ccncc3)cc2)Cc2ccccc21` (stereo unspecified): the IC50 in experiment [1] amounted to 0.002 µM; against Interstitial collagenase, 0.763 µM; in experiment [2] it was 0.157 µM; at Collagenase 3, 0.002 µM. This molecule also gave an Activity with Rattus norvegicus [4] of 0.32.
`CC#CCOc1ccc(S(=O)(=O)N2Cc3ccccc3N(S(C)(=O)=O)CC2C(=O)NO)cc1` (stereo unspecified): the IC50 stood at 0.0955 µM in experiment [1], 0.26 µM at Interstitial collagenase, 0.02 µM in experiment [2] and 0.0346 µM at Collagenase 3. 3 µM produced 44% inhibition with THP-1.
Turning to `COc1ccc(S(=O)(=O)N2Cc3ccccc3N(S(C)(=O)=O)CC2C(=O)NO)cc1` (stereo unspecified), in experiment [1], the IC50 stood at 0.008 µM.
On to `COc1ccc(S(=O)(=O)N2Cc3ccccc3N(C(=O)C3CCCCC3)CC2C(=O)NO)cc1` (stereo unspecified), for which the IC50 in experiment [1] was determined as 0.013 µM. Moreover, the Activity in the experiment with Rattus norvegicus [4] amounted to 0.47.
With `COc1ccc(S(=O)(=O)N2Cc3ccccc3N(C(=O)C3CC3)CC2C(=O)NO)cc1` (stereo unspecified), the Activity in the experiment on Rattus norvegicus [9] stood at 0.8; in the experiment on Rattus norvegicus [4], 0.49.
